This note sets out measurements from patent US12187709B2 (Genentech, Inc., priority 2021, dated 2025).

One assay concerns the target Cbl-b (Homo sapiens (Human), UniProt Q13191). Nature of the assay: Cbl-b LCK Ub TR-FRET assay (Cbl-b Lck HTRF). The following applies: for IC50: Cbl-b LCK Ub TR-FRET; for fold-selectivity (Cbl-b over C-cbl): ratio C-cbl Lck HTRF IC50 / Cbl-b Lck HTRF IC50. The class given is biochemical. The method in brief:
(§1)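 Detection reagents added, brief spin, 20 min RT. IC50 fit normalized to no-LCK (low) and DMSO (high) controls.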

For a further assay, the target named is c-Cbl (Homo sapiens (Human), UniProt P22681). Put plainly: C-Cbl LCK Ub TR-FRET assay (C-cbl Lck HTRF). The class given is biochemical. The method in brief:
as §1

The target in assay [1] is Human Cbl-b (residues 40-426) (Homo sapiens (Human), UniProt Q13191). Nature of the assay: Cbl-b SPR assay. The class given is binding. Conditions: for Fold of selectivity: C-cbl SPR Kd vs Cbl-b SPR Kd; for Kd: SPR, 20° C. The method in brief:
(§2)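 Binding was measured by SPR and fitted to a 1:1 model from multi-cycle kinetics with double referencing, 6 concentrations in 2-fold dilution. Alternatively, single-cycle titrations up to 500 nM (120 s contact) were fitted with kd fixed from a single-exponential fit of chaser-measured % compound bound versus time.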

For a further assay, the target named is c-Cbl (residues 47-435) (Homo sapiens (Human), UniProt P22681). Nature of the assay: c-Cbl SPR assay. Type of assay: binding. The following applies: 20° C. The method in brief: as §2
Sequence of c-Cbl (residues 47-435) (P22681 47-435): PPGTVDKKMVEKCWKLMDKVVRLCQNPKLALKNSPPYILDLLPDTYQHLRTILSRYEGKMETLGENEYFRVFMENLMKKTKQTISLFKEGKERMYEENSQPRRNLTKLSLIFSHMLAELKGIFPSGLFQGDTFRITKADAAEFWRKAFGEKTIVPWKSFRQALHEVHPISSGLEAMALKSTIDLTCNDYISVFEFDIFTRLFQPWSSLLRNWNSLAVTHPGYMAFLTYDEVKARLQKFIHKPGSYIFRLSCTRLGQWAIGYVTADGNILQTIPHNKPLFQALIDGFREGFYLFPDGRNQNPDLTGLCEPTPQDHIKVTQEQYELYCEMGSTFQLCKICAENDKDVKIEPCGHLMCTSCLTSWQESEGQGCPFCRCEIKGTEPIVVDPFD

Sequence of Human Cbl-b (residues 40-426) (Q13191 40-426): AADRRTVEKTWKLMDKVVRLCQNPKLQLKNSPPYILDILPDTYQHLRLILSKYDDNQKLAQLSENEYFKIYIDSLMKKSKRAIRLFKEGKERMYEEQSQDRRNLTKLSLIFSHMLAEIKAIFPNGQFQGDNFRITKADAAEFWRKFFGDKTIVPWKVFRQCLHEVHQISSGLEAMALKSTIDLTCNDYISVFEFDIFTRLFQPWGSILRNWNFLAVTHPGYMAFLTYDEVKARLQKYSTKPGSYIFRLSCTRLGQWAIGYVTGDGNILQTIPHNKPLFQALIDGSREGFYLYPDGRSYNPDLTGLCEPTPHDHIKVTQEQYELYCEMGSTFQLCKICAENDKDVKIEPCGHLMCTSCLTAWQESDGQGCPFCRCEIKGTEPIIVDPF
Sequence of Cbl-b (Q13191 40-426): as above
Sequence of c-Cbl (P22681 47-435): as the sequence (P22681 47-435) above

Turning to `Cn1cnnc1[C@]1(c2cccc(N3Cc4c(cc(CNC5(C)CCC5)cc4C(F)(F)F)C3=O)c2)C[C@@](C)(O)C1` [Compound 27, 2-(3-((1r,3r)-3-hydroxy-3-methyl-1-(4-methyl-4H-1,2,4-triazol-3-yl)cyclobutyl)phenyl)-6-(((1-methylcyclobutyl)amino)methyl)-4-(trifluoromethyl)isoindolin-1-one], at Cbl-b, the IC50 was 170 nM and the “fold-selectivity (Cbl-b over C-cbl)” value is given as “(3.0x)”. Also, inhibition against c-Cbl was half-maximal at 510 nM (IC50). Further, in assay [1], the Fold of selectivity turned out to be 7.2× and the Kd came to 60 nM. Besides, binding at c-Cbl (residues 47-435) was characterised by a dissociation constant (Kd) of 430 nM.
For `CO[C@]1(C)C[C@@](c2cccc(N3Cc4c(cc(CNC5(C)CCC5)cc4C(F)(F)F)C3=O)c2)(c2nncn2C)C1` [Compound 28, 2-(3-((1r,3r)-3-methoxy-3-methyl-1-(4-methyl-4H-1,2,4-triazol-3-yl)cyclobutyl)phenyl)-6-(((1-methylcyclobutyl)amino)methyl)-4-(trifluoromethyl)isoindolin-1-one], the IC50 came to 13 nM at Cbl-b and 35 nM against c-Cbl. In addition, at Cbl-b, the “fold-selectivity (Cbl-b over C-cbl)” value is “(2.7x)”. This molecule had a Fold of selectivity in assay [1] of 5.5×. Besides, the Kd in assay [1] is 2.5 nM; at c-Cbl (residues 47-435), 13 nM.
For `Cn1cnnc1[C@]1(c2cccc(N3Cc4c(cc(CNC5(C)CCC5)cc4C(F)(F)F)C3=O)c2)C[C@](C)(F)C1` [Compound 30, 2-(3-((1s,3s)-3-fluoro-3-methyl-1-(4-methyl-4H-1,2,4-triazol-3-yl)cyclobutyl)phenyl)-6-(((1-methylcyclobutyl)amino)methyl)-4-(trifluoromethyl)isoindolin-1-one], the IC50 at Cbl-b was 17 nM; against c-Cbl, 27 nM. The “fold-selectivity (Cbl-b over C-cbl)” value on Cbl-b was “(1.6x)”. In assay [1], this molecule came in with a Fold of selectivity of 3.8×. Besides, the values for the Kd (in assay [1]; on c-Cbl (residues 47-435)) were 2.6 nM and 9.8 nM, respectively.
In the case of `Cn1cnnc1[C@]1(c2cccc(N3Cc4c(cc(CNC5(C)CCC5)cc4C(F)(F)F)C3=O)c2)C[C@H](C)C1` [Compound 34, 2-(3-((1s,3s)-3-methyl-1-(4-methyl-4H-1,2,4-triazol-3-yl)cyclobutyl)phenyl)-6-(((1-methylcyclobutyl)amino)methyl)-4-(trifluoromethyl)isoindolin-1-one], on Cbl-b, the IC50 worked out at 12 nM and the “fold-selectivity (Cbl-b over C-cbl)” value is listed as “(0.94x)”. The IC50 at c-Cbl was found to be 11 nM. For the same molecule, in assay [1], the Fold of selectivity came out at 0.6× and the Kd came out at 4 nM. The Kd at c-Cbl (residues 47-435) amounted to 2.3 nM.
For the molecule `Cn1cnnc1[C@]1(c2cccc(N3Cc4c(cc(CNC5(C)CCC5)cc4C(F)(F)F)C3=O)c2)C[C@@H](C)C1` [Compound 35, 2-(3-((1r,3r)-3-methyl-1-(4-methyl-4H-1,2,4-triazol-3-yl)cyclobutyl)phenyl)-6-(((1-methylcyclobutyl)amino)methyl)-4-(trifluoromethyl)isoindolin-1-one], the results for the IC50 at Cbl-b and at c-Cbl were 9.1 nM and 8.8 nM, respectively. For the same molecule, the “fold-selectivity (Cbl-b over C-cbl)” value on Cbl-b is “(0.97x)”. In assay [1], this molecule gave a Fold of selectivity of 3.4×. For the same molecule, the Kd came out at 0.5 nM in assay [1] and 1.7 nM on c-Cbl (residues 47-435).
As for `Cn1cnnc1[C@]1(c2cc(NC3CC(F)(F)C3)nc(N3Cc4c(cc(CNC5(C)CCC5)cc4C(F)(F)F)C3=O)c2)C[C@@H](C)C1` [Compound 48, 2-(6-((3,3-difluorocyclobutyl)amino)-4-((1r,3r)-3-methyl-1-(4-methyl-4H-1,2,4-triazol-3-yl)cyclobutyl)pyridin-2-yl)-6-(((1-methylcyclobutyl)amino)methyl)-4-(trifluoromethyl)isoindolin-1-one], at Cbl-b, the IC50 was 10 nM and the “fold-selectivity (Cbl-b over C-cbl)” value is recorded as “(1.5x)”. The IC50 against c-Cbl came out at 15 nM. Also, in assay [1], the Fold of selectivity is recorded as 3.0× and the Kd is 3.8 nM. For the same molecule, the affinity at c-Cbl (residues 47-435), expressed as Kd, was 11 nM.
In the case of `Cn1cnnc1[C@]1(c2cc(NC3CC(F)(F)C3)nc(N3Cc4c(cc(CNC5(C)CCC5)cc4C(F)(F)F)C3=O)c2)C[C@H](C)C1` [Compound 49, 2-(6-((3,3-difluorocyclobutyl)amino)-4-((1s,3s)-3-methyl-1-(4-methyl-4H-1,2,4-triazol-3-yl)cyclobutyl)pyridin-2-yl)-6-(((1-methylcyclobutyl)amino)methyl)-4-(trifluoromethyl)isoindolin-1-one], at Cbl-b, the IC50 is 14 nM and the “fold-selectivity (Cbl-b over C-cbl)” value is “(1.4x)”. Besides, the midpoint of inhibition against c-Cbl, the IC50, lay at 19.6 nM. Moreover, in assay [1], the Fold of selectivity amounted to 7.0× and the Kd came out at 2.2 nM. Also, the Kd on c-Cbl (residues 47-435) worked out at 16 nM.
`Cn1cnnc1C1(c2cccc(N3Cc4c(cc(CNC5(C)CCC5)cc4C(F)(F)F)C3=O)c2)COC1` [Compound 58, 2-(3-(3-(4-methyl-4H-1,2,4-triazol-3-yl)oxetan-3-yl)phenyl)-6-(((1-methylcyclobutyl)amino)methyl)-4-(trifluoromethyl)isoindolin-1-one]: the IC50 against Cbl-b turned out to be 280 nM; on c-Cbl, 560 nM. Moreover, the “fold-selectivity (Cbl-b over C-cbl)” value at Cbl-b is recorded as “(2.0x)”. In assay [1], this molecule displayed a Fold of selectivity of 3.1×. For the same molecule, the Kd came to 140 nM in assay [1] and 440 nM at c-Cbl (residues 47-435).
As for `Cn1cnnc1C1(c2cccc(N3Cc4c(cc(CNC5(C)CCC5)cc4C(F)(F)F)C3=O)c2)CC(F)(F)C1` [Compound 61, 2-(3-(3,3-difluoro-1-(4-methyl-4H-1,2,4-triazol-3-yl)cyclobutyl)phenyl)-6-(((1-methylcyclobutyl)amino)methyl)-4-(trifluoromethyl)isoindolin-1-one], the figures for the IC50 at Cbl-b and at c-Cbl were 15 nM and 25.5 nM, respectively. The “fold-selectivity (Cbl-b over C-cbl)” value at Cbl-b is “(1.7x)”. Besides, the Fold of selectivity in assay [1] was 5.2×. Besides, the Kd is 3.7 nM in assay [1] and 20 nM on c-Cbl (residues 47-435).
In the case of `Cn1cnnc1C1(c2cccc(N3Cc4c(cc(CNC5(C)CCC5)cc4C(F)(F)F)C3=O)c2)CC2(COC2)C1` [Compound 65, 2-(3-(6-(4-methyl-4H-1,2,4-triazol-3-yl)-2-oxaspiro[3.3]heptan-6-yl)phenyl)-6-(((1-methylcyclobutyl)amino)methyl)-4-(trifluoromethyl)isoindolin-1-one], at Cbl-b, the IC50 turned out to be 20 nM and the “fold-selectivity (Cbl-b over C-cbl)” value is “(3.1x)”. In addition, half-maximal inhibition at c-Cbl (IC50) required 62 nM. In assay [1], this molecule came in with a Fold of selectivity of 19× and a Kd of 3.7 nM. Further, binding on c-Cbl (residues 47-435) was put at a Kd of 68 nM.
As for `Cn1cnnc1[C@]1(c2cc(NC3CCC3)nc(N3Cc4c(cc(CNC5(C)CCC5)cc4C(F)(F)F)C3=O)c2)C[C@H](C)C1` [Compound 67, 2-(6-(cyclobutylamino)-4-((1S,3S)-3-methyl-1-(4-methyl-4H-1,2,4-triazol-3-yl)cyclobutyl)pyridin-2-yl)-6-(((1-methylcyclobutyl)amino)methyl)-4-(trifluoromethyl)isoindolin-1-one], at Cbl-b, half-maximal inhibition (IC50) was put at 6.5 nM and the “fold-selectivity (Cbl-b over C-cbl)” value is “(0.9x)”. Further, inhibition against c-Cbl was half-maximal at 5.9 nM (IC50). In assay [1], the Fold of selectivity is reported as 1.5× and binding was put at a Kd of 0.36 nM. This molecule also returned a Kd on c-Cbl (residues 47-435) of 0.53 nM.
With `Cn1cnnc1[C@]1(c2cc(NC3CCC3)nc(N3Cc4c(cc(CNC5(C)CCC5)cc4C(F)(F)F)C3=O)c2)C[C@@H](C)C1` [Compound 68, 2-(6-(cyclobutylamino)-4-((1R,3R)-3-methyl-1-(4-methyl-4H-1,2,4-triazol-3-yl)cyclobutyl)pyridin-2-yl)-6-(((1-methylcyclobutyl)amino)methyl)-4-(trifluoromethyl)isoindolin-1-one], the figures for the IC50 at Cbl-b and on c-Cbl were 8.5 nM and 7.1 nM, respectively. Moreover, the “fold-selectivity (Cbl-b over C-cbl)” value at Cbl-b was “(0.8x)”. In assay [1], the Fold of selectivity worked out at 4.3×. Also, the results for the Kd (in assay [1]; at c-Cbl (residues 47-435)) were 0.24 nM and 1 nM, respectively.
Turning to `CO[C@H]1C[C@@](c2cc(NC3CCCC3)nc(N3Cc4c(cc(CNC5(C)CCC5)cc4C(F)(F)F)C3=O)c2)(c2nncn2C)C1` [Compound 69, 2-(6-(cyclopentylamino)-4-((1S,3S)-3-methoxy-1-(4-methyl-4H-1,2,4-triazol-3-yl)cyclobutyl)pyridin-2-yl)-6-(((1-methylcyclobutyl)amino)methyl)-4-(trifluoromethyl)isoindolin-1-one], at Cbl-b, half-maximal inhibition (IC50) required 11 nM and the “fold-selectivity (Cbl-b over C-cbl)” value was “(4.9x)”. This molecule also had an IC50 against c-Cbl of 54 nM. In addition, in assay [1], the Fold of selectivity is 6.9× and the Kd was found to be 3.3 nM. At c-Cbl (residues 47-435), this molecule registered a Kd of 23 nM.
`CO[C@H]1C[C@](c2cc(NC3CCCC3)nc(N3Cc4c(cc(CNC5(C)CCC5)cc4C(F)(F)F)C3=O)c2)(c2nncn2C)C1` [Compound 70, 2-(6-(cyclopentylamino)-4-((1R,3R)-3-methoxy-1-(4-methyl-4H-1,2,4-triazol-3-yl)cyclobutyl)pyridin-2-yl)-6-(((1-methylcyclobutyl)amino)methyl)-4-(trifluoromethyl)isoindolin-1-one]: on Cbl-b, the IC50 turned out to be 17 nM and the “fold-selectivity (Cbl-b over C-cbl)” value is “(9.3x)”. For the same molecule, the IC50 at c-Cbl is 158 nM. In assay [1], this molecule gave a Fold of selectivity of 20× and a Kd of 11 nM. At c-Cbl (residues 47-435), this molecule gave a Kd of 220 nM.
